Source: PubChem BioAssay AID248 (DTP/NCI, 2004)
“And” between values parts separate entries of the source, which are not always exact repeats. Equal values may be shown once. Toxic doses and inconclusive results are not listed. Rule as the data show it: active = T/C of 150% or more; inactive = T/C below 125%.

Tested on: L1210 leukemia ip in BDF1 mice, survival T/C
Assay: NCI In Vivo Anticancer Drug Screen. Data for tumor model L1210 Leukemia (intraperitoneal) in B6D2F1 (BDF1) mice
Details: endpoint: mean survival time, higher = longer survival
How it was run: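 Tumor was transplanted into mice, which were then dosed with test compound or vehicle alone. Survival was recorded for each group, and the treated figure was expressed relative to the control figure.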

Measured: T/C

CN(C)c1ccc(Nc2c3ccccc3nc3ccccc23)cc1
inactive: dose: 3.13 mg/kg/injection, schedule: Q03HX040 (ip), vehicle: saline 106 % of control | dose: 3.75 mg/kg/injection, schedule: Q01DX Z (ip), vehicle: saline 107 % of control | dose: 3.75 mg/kg/injection, schedule: Q01DX Z (oral), vehicle: olive oil, sesame oil, peanut oil 116 % of control | dose: 5.0 mg/kg/injection, schedule: Q01DX005 (ip), vehicle: saline 107 % of control | dose: 5.0 mg/kg/injection, schedule: Q01DX009 (ip), vehicle: saline 107 % of control | dose: 5.0 mg/kg/injection, schedule: Q01DX009 (sc), vehicle: saline 101 % of control | dose: 6.12 mg/kg/injection, schedule: Q03HX008 (ip), vehicle: saline 107 % of control | dose: 6.25 mg/kg/injection, schedule: Q03HX008 (ip), vehicle: saline 104 % of control | dose: 6.25 mg/kg/injection, schedule: Q03HX016 (ip), vehicle: saline 103 % of control | dose: 7.0 mg/kg/injection, schedule: Q01DX Z (sc), vehicle: steriod suspending solution 104 % of control | dose: 7.5 mg/kg/injection, schedule: Q01DX Z (ip), vehicle: saline 110 % of control | dose: 10.0 mg/kg/injection, schedule: Q01DX005 (ip), vehicle: saline 108 % of control | dose: 10.0 mg/kg/injection, schedule: Q01DX009 (ip), vehicle: saline 117 % of control | dose: 10.0 mg/kg/injection, schedule: Q01DX009 (oral), vehicle: saline 118 % of control | dose: 10.0 mg/kg/injection, schedule: Q01DX009 (sc), vehicle: saline 102 % of control | dose: 10.0 mg/kg/injection, schedule: Q01DX Z (sc), vehicle: steriod suspending solution 115 % of control | dose: 12.5 mg/kg/injection, schedule: Q01DX Z (im), vehicle: saline 108 % of control | dose: 12.5 mg/kg/injection, schedule: Q04DX003 (ip), vehicle: saline 104 % of control | dose: 12.5 mg/kg/injection, schedule: Q06HX004 (ip), vehicle: saline 115 % of control | dose: 12.5 mg/kg/injection, schedule: Q#A X Z (oral), vehicle: saline 112 % of control | dose: 15.0 mg/kg/injection, schedule: Q01DX Z (oral), vehicle: olive oil, sesame oil, peanut oil 115 % of control | dose: 15.0 mg/kg/injection, schedule: Q01DX Z (sc), vehicle: steriod suspending solution 107 % of control | dose: 16.0 mg/kg/injection, schedule: Q01DX Z (ip), vehicle: carboxymethylcellulose (CMC) 112 % of control | dose: 17.5 mg/kg/injection, schedule: Q#A X Z (ip), vehicle: saline 116 % of control | dose: 19.0 mg/kg/injection, schedule: Q03DX006 (oral), vehicle: saline 112 % of control | dose: 20.0 mg/kg/injection, schedule: Q01DX009 (oral), vehicle: saline 101 % of control | dose: 20.0 mg/kg/injection, schedule: Q01DX009 (sc), vehicle: saline 100 % of control | dose: 22.5 mg/kg/injection, schedule: Q01DX009 (ip), vehicle: saline 120 % of control | dose: 23.0 mg/kg/injection, schedule: Q01DX Z (sc), vehicle: steriod suspending solution 115 % of control and 119 % of control | dose: 24.0 mg/kg/injection, schedule: Q01DX Z (ip), vehicle: carboxymethylcellulose (CMC) 120 % of control | dose: 24.0 mg/kg/injection, schedule: Q01DX Z (ip), vehicle: saline 111 % of control | dose: 25.0 mg/kg/injection, schedule: Q01DX001 (oral), vehicle: saline 96 % of control | dose: 25.0 mg/kg/injection, schedule: Q01DX001 (sc), vehicle: saline 96 % of control | dose: 25.0 mg/kg/injection, schedule: Q01DX005 (ip), vehicle: Klucel (hydroxypropylcellulose) (HPC) 112 % of control | dose: 25.0 mg/kg/injection, schedule: Q01DX005 (ip), vehicle: other 108 % of control and 114 % of control | dose: 25.0 mg/kg/injection, schedule: Q01DX009 (ip), vehicle: saline 116 % of control | dose: 25.0 mg/kg/injection, schedule: Q01DX Z (im), vehicle: saline 108 % of control | dose: 25.0 mg/kg/injection, schedule: Q01DX Z (oral), vehicle: saline 120 % of control | dose: 27.0 mg/kg/injection, schedule: Q01DX Z (oral), vehicle: saline 115 % of control | dose: 30.0 mg/kg/injection, schedule: Q01DX Z (ip), vehicle: olive oil, sesame oil, peanut oil 116 % of control | dose: 30.0 mg/kg/injection, schedule: Q01DX Z (sc), vehicle: olive oil, sesame oil, peanut oil 114 % of control | dose: 30.0 mg/kg/injection, schedule: Q01DX Z (sc), vehicle: saline 114 % of control | dose: 35.0 mg/kg/injection, schedule: Q01DX Z (ip), vehicle: carboxymethylcellulose (CMC) 118 % of control | dose: 35.0 mg/kg/injection, schedule: Q01DX Z (ip), vehicle: saline 101 % of control and 111 % of control | dose: 35.0 mg/kg/injection, schedule: Q01DX Z (sc), vehicle: steriod suspending solution 113 % of control | dose: 37.0 mg/kg/injection, schedule: Q03DX006 (oral), vehicle: saline 118 % of control | dose: 40.0 mg/kg/injection, schedule: Q01DX009 (sc), vehicle: saline 105 % of control | dose: 50.0 mg/kg/injection, schedule: Q01DX001 (oral), vehicle: saline 105 % of control | dose: 50.0 mg/kg/injection, schedule: Q01DX001 (sc), vehicle: saline 97 % of control | dose: 50.0 mg/kg/injection, schedule: Q01DX005 (ip), vehicle: other 112 % of control | dose: 50.0 mg/kg/injection, schedule: Q01DX Z (im), vehicle: saline 116 % of control | dose: 50.0 mg/kg/injection, schedule: Q01DX Z (oral), vehicle: saline 117 % of control | dose: 50.0 mg/kg/injection, schedule: Q04DX003 (ip), vehicle: Klucel (hydroxypropylcellulose) (HPC) 111 % of control | dose: 50.0 mg/kg/injection, schedule: Q04DX003 (ip), vehicle: other 108 % of control and 119 % of control | dose: 50.0 mg/kg/injection, schedule: Q#A X Z (oral), vehicle: saline 118 % of control | dose: 53.0 mg/kg/injection, schedule: Q01DX Z (sc), vehicle: saline 113 % of control | dose: 53.0 mg/kg/injection, schedule: Q01DX Z (sc), vehicle: steriod suspending solution 115 % of control | dose: 53.3 mg/kg/injection, schedule: Q01DX Z (ip), vehicle: carboxymethylcellulose (CMC) 115 % of control | dose: 53.3 mg/kg/injection, schedule: Q01DX Z (ip), vehicle: methylcellulose (MC) 111 % of control | dose: 60.0 mg/kg/injection, schedule: Q01DX Z (oral), vehicle: olive oil, sesame oil, peanut oil 120 % of control | dose: 60.0 mg/kg/injection, schedule: Q01DX Z (sc), vehicle: olive oil, sesame oil, peanut oil 117 % of control | dose: 80.0 mg/kg/injection, schedule: Q01DX Z (ip), vehicle: methylcellulose (MC) 95 % of control | dose: 80.0 mg/kg/injection, schedule: Q01DX Z (sc), vehicle: saline 107 % of control | dose: 90.0 mg/kg/injection, schedule: Q01DX009 (ip), vehicle: saline 119 % of control | dose: 100.0 mg/kg/injection, schedule: Q01DX001 (oral), vehicle: saline 112 % of control | dose: 100.0 mg/kg/injection, schedule: Q01DX001 (sc), vehicle: saline 108 % of control | dose: 100.0 mg/kg/injection, schedule: Q01DX005 (ip), vehicle: other 100 % of control | dose: 100.0 mg/kg/injection, schedule: Q04DX003 (ip), vehicle: other 112 % of control | dose: 105.0 mg/kg/injection, schedule: Q01DX Z (ip), vehicle: saline 114 % of control | dose: 120.0 mg/kg/injection, schedule: Q01DX Z (oral), vehicle: olive oil, sesame oil, peanut oil 111 % of control | dose: 120.0 mg/kg/injection, schedule: Q01DX Z (sc), vehicle: saline 120 % of control | dose: 125.0 mg/kg/injection, schedule: Q01DX001 (ip), vehicle: Klucel (hydroxypropylcellulose) (HPC) 115 % of control | dose: 125.0 mg/kg/injection, schedule: Q01DX001 (ip), vehicle: saline 111 % of control | dose: 135.0 mg/kg/injection, schedule: Q#A X Z (ip), vehicle: saline 97 % of control | dose: 175.0 mg/kg/injection, schedule: Q01DX001 (oral), vehicle: saline 108 % of control and 121 % of control | dose: 175.0 mg/kg/injection, schedule: Q07DX003 (oral), vehicle: saline 117 % of control | dose: 180.0 mg/kg/injection, schedule: Q01DX Z (ip), vehicle: carboxymethylcellulose (CMC) 96 % of control and 108 % of control and 110 % of control | dose: 180.0 mg/kg/injection, schedule: Q01DX Z (sc), vehicle: saline 97 % of control | dose: 200.0 mg/kg/injection, schedule: Q01DX001 (oral), vehicle: saline 107 % of control | dose: 200.0 mg/kg/injection, schedule: Q01DX001 (sc), vehicle: saline 103 % of control | dose: 245.0 mg/kg/injection, schedule: Q01DX Z (ip), vehicle: saline 110 % of control | dose: 400.0 mg/kg/injection, schedule: Q01DX Z (im), vehicle: saline 93 % of control | dose: 405.0 mg/kg/injection, schedule: Q01DX Z (ip), vehicle: saline 100 % of control and 113 % of control | dose: 480.0 mg/kg/injection, schedule: Q01DX Z (sc), vehicle: saline 109 % of control | dose: 540.0 mg/kg/injection, schedule: Q01DX Z (ip), vehicle: saline 119 % of control | dose: 600.0 mg/kg/injection, schedule: Q03DX006 (oral), vehicle: saline 101 % of control | dose: 608.0 mg/kg/injection, schedule: Q01DX Z (ip), vehicle: saline 114 % of control | dose: 700.0 mg/kg/injection, schedule: Q01DX001 (oral), vehicle: saline 115 % of control | dose: 912.0 mg/kg/injection, schedule: Q01DX Z (ip), vehicle: saline 115 % of control | dose: 1000.0 mg/kg/injection, schedule: Q01DX001 (ip), vehicle: Klucel (hydroxypropylcellulose) (HPC) 109 % of control | dose: 1260.0 mg/kg/injection, schedule: Q01DX Z (ip), vehicle: saline 119 % of control | dose: 1400.0 mg/kg/injection, schedule: Q01DX001 (oral), vehicle: saline 109 % of control
